Data on 13 compounds can be found in ChEMBL document CHEMBL1201862, “PubChem BioAssay data set” (2004).

Common to all, as to test: NCI-60 cell line screen, 48 h
Experiment [1] relates to UO-31.
In experiment [2] the test system is HCT-15.
Experiment [3] relates to SNB-75.
Experiment [4] deals with HCT-116.
Experiment [5] deals with CCRF-CEM.
For experiment [6], the system named is SR.
In experiment [7] the test system is IGROV-1.
Experiment [8] relates to UACC-62.
Experiment [9] concerns K562.
Experiment [10] has as its system Malme-3M.
Experiment [11] relates to CAKI-1.
Experiment [12] deals with TK-10.
Experiment [13] has as its system 786-0.
In experiment [14] the test system is EKVX.
Experiment [15] deals with HOP-62.
The test system of experiment [16] is HT-29.
Experiment [17] relates to MCF7.
The test system of experiment [18] is PC-3.

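Exposure lasted 48 hours, with cells grown in 96-well plates and compounds tested at five concentrations. At the GI50, growth is halved.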 The source made the active and inactive calls. Rule as the data show it: active = GI50 up to about 1.1 µM and inactive = higher.

In the case of `CN(C)C(=S)/N=c1\ssc(=S)n1Cc1ccncc1`, the GI50 in experiment [1] was 15.5 µM (inactive); in [2], 17.5 µM; in experiment [3] it was 13.6 µM (inactive); in experiment [4], 18.3 µM (inactive); in experiment [5], 5.81 µM (inactive); in experiment [6], 6.28 µM (inactive). Further, the GI50 is 17.9 µM (inactive) in experiment [7]; 10 µM (inactive) in experiment [8]; 18.3 µM (inactive) in experiment [9]; 16.3 µM (inactive) in experiment [10]; 18.9 µM (inactive) in experiment [11]; 25 µM (inactive) in [12]. For the same compound, the GI50 was 21.7 µM (inactive) in [13], 22.8 µM (inactive) in [14] and 24.9 µM (inactive) in [15].
Turning to `Cc1cc([N+](=O)[O-])ccc1Sc1c2ccccc2nc2cc(Cl)ccc12`, the GI50 in experiment [1] was 45.2 µM (inactive); in experiment [2], 51.4 µM; in [3] it was 30.8 µM (inactive); in experiment [4], 28.1 µM (inactive); in [5] it was 28.1 µM (inactive); in [6] it was 26.9 µM (inactive). The GI50 in [7] is 46.2 µM (inactive); in experiment [8], 34.5 µM (inactive); in experiment [9] it was 36.1 µM (inactive); in experiment [10], > 100 µM (inactive); in experiment [11] it was 26.2 µM (inactive); in [12], 55.6 µM (inactive). Further, the GI50 in experiment [13] is 35.2 µM (inactive); in experiment [14], 40.6 µM (inactive); in experiment [15], 73.5 µM (inactive).
In the case of `N#Cc1c(C[n+]2ccccc2)c2ccccc2oc1=O`, the GI50 was > 100 µM (inactive) in experiment [1]; more than 100 µM in experiment [2]; > 100 µM (inactive) in experiment [3]; > 100 µM (inactive) in experiment [4]; > 100 µM (inactive) in experiment [5]; > 100 µM (inactive) in experiment [6]. Besides, the GI50 in [7], in [8], in [9], in experiment [16], in experiment [10] and in experiment [11] was > 100 µM (inactive) throughout. For the same compound, the GI50 in experiment [13], in experiment [14] and in [15] was > 100 µM (inactive) each time.
For `C[C@@]1(O)CC[C@]2(C)C3CCCC3[C@H]12` (stereo partly specified), the GI50 in experiment [1] was > 100 µM (inactive); in experiment [2], more than 100 µM; in [3], > 100 µM (inactive); in [4] it was > 100 µM (inactive); in experiment [5] it was > 100 µM (inactive); in experiment [6], > 100 µM (inactive). Moreover, the GI50 in experiment [7], in experiment [8], in [9], in experiment [16], in experiment [10] and in [11] was > 100 µM (inactive) each time. The GI50 in experiment [12], in experiment [13], in experiment [14] and in [15] was > 100 µM (inactive) in each case.
As for `O=C(NC1C2CC3CC(C2)CC1C3)/C(Cl)=C1/Sc2ccccc2NC1=O` (stereo unspecified), the GI50 in [1] is 58.9 µM (inactive); in experiment [2], more than 78.9 µM; in experiment [3], 97.9 µM (inactive); in [4], > 83.6 µM (inactive); in experiment [5] it was 29.5 µM (inactive); in [6], 44.5 µM (inactive). The GI50 was > 100 µM (inactive) in [7]; > 89.5 µM (inactive) in experiment [8]; 29.6 µM (inactive) in experiment [9]; > 100 µM (inactive) in experiment [16]; > 100 µM (inactive) in experiment [10]; > 100 µM (inactive) in experiment [11]. The GI50 is > 64.6 µM (inactive) in [12], > 100 µM (inactive) in experiment [13], > 100 µM (inactive) in [14] and > 100 µM (inactive) in [15].
As for `Cc1nc2ccccc2c(=O)n1-c1ccccc1I`, the GI50 is 90.2 µM (inactive) in [1]; more than 100 µM in experiment [2]; 46.2 µM (inactive) in experiment [3]; > 100 µM (inactive) in [4]; > 100 µM (inactive) in experiment [5]; > 100 µM (inactive) in experiment [6]. Besides, the GI50 in experiment [7] was > 100 µM (inactive); in experiment [8] it was > 100 µM (inactive); in experiment [9], 96.4 µM (inactive); in experiment [16], > 100 µM (inactive); in experiment [10], > 100 µM (inactive); in experiment [11], > 100 µM (inactive). Besides, the GI50 in [12] was > 100 µM (inactive); in experiment [13] it was > 100 µM (inactive); in [14] it was 70.6 µM (inactive); in [15], > 100 µM (inactive).
With `CC(=O)OC1OC2C(NC(=O)OC(C)(C)C)C1CC2(OCc1ccccc1)OCc1ccccc1` (stereo unspecified), the GI50 in experiment [1] was 13.1 µM (inactive); in experiment [2], 32.3 µM; in experiment [3], 36.2 µM (inactive); in experiment [4], 16.7 µM (inactive); in experiment [5] it was 18.3 µM (inactive); in experiment [6] it was 17.8 µM (inactive). Besides, the GI50 is 27 µM (inactive) in [7]; 19 µM (inactive) in [8]; 17 µM (inactive) in experiment [9]; 33.7 µM (inactive) in experiment [16]; 14.4 µM (inactive) in experiment [10]; 32.4 µM (inactive) in experiment [11]. Besides, the GI50 was 17 µM (inactive) in [12], 23.3 µM (inactive) in experiment [13], 34.7 µM (inactive) in [14] and 28.2 µM (inactive) in [15].
With `COc1ccc(/C=C\c2cc(OC)c(OC)c(OC)c2)cc1`, the GI50 is < 0.01 µM (active) in experiment [1]; 0.000448 µM in experiment [2]; 0.000237 µM (active) in experiment [3]; 0.000279 µM (active) in experiment [4]; 0.000269 µM (active) in experiment [5]; < 0.01 µM (active) in experiment [6]. Further, the GI50 in experiment [7] is 0.0387 µM (active); in experiment [8] it was < 0.0001 µM (active); in [9] it was 0.000102 µM (active); in [16] it was < 0.01 µM (active); in experiment [10], 0.00184 µM (active); in [11], < 0.01 µM (active). The values for the GI50 in [13], in experiment [14] and in [15] were 0.000395 µM (active), 0.00264 µM (active) and 0.1 µM (active), respectively.
For `CC1=C(C(=O)CC(=O)C(=O)Nc2ccccc2C)Sc2ccccc2N1`, the GI50 was > 100 µM (inactive) in [1]; more than 100 µM in experiment [2]; > 53.8 µM (inactive) in experiment [3]; > 40.6 µM (inactive) in experiment [4]; > 57.1 µM (inactive) in [5]; > 100 µM (inactive) in experiment [6]. In addition, the GI50 in [7] was > 100 µM (inactive); in [8], > 100 µM (inactive); in experiment [9], > 56.9 µM (inactive); in experiment [16], > 100 µM (inactive); in [10], > 100 µM (inactive); in [11], > 100 µM (inactive). Also, the GI50 in [12] was > 100 µM (inactive); in experiment [13], > 45.5 µM (inactive); in [14], > 100 µM (inactive); in experiment [15] it was > 100 µM (inactive).
As to `COC1CCC(OC2CC(C3(C)CCC4(CC(O)C(C)C(C(C)/C=C(\C)C(=O)C(C)CC(C)C(=O)O)O4)O3)OC3(OC(C4OC(O)(CO)C(C)CC4C)CC3C)C2C)OC1C` (stereo unspecified), the GI50 is 0.0548 µM (active) in experiment [1]; 0.0351 µM in experiment [2]; 0.022 µM (active) in [3]; < 0.0279 µM (active) in experiment [4]; < 0.01 µM (active) in [5]; < 0.01 µM (active) in [6]. Further, the GI50 in experiment [7] was 1.79 µM (inactive); in experiment [8], 0.132 µM (active); in [9], < 0.0155 µM (active); in experiment [16] it was < 0.0313 µM (active); in experiment [10] it was < 0.0205 µM (active); in [11], 0.0982 µM (active). The GI50 in experiment [17] is < 0.0208 µM (active); in experiment [12] it was 0.646 µM (active); in [18] it was < 0.01 µM (active); in experiment [13], < 0.0341 µM (active); in [14], 0.507 µM (active); in experiment [15] it was < 0.0156 µM (active).
As for `CC1=C(c2nc3ccccc3s2)C(=O)OC1(C)C`, the GI50 in [1] is > 100 µM (inactive); in experiment [2], more than 100 µM; in experiment [3], 86.5 µM (inactive); in experiment [4], > 100 µM (inactive); in experiment [5] it was > 100 µM (inactive); in [6], > 100 µM (inactive). The GI50 in experiment [8], in experiment [9], in experiment [16], in experiment [10], in [11] and in experiment [13] was > 100 µM (inactive) throughout. The GI50 in experiment [14] and in [15] was > 100 µM (inactive) throughout.
Take `FC(F)(F)c1ccc(C2SCc3nc4ccccc4n32)cc1` (stereo unspecified): the GI50 is > 100 µM (inactive) in [1]; 60 µM (inactive) in experiment [3]; 27.9 µM (inactive) in [4]; 31.4 µM (inactive) in [5]; 16.2 µM (inactive) in experiment [6]; 14.2 µM (inactive) in [7]. For the same compound, the GI50 was 26.4 µM (inactive) in experiment [8]; 3.75 µM (inactive) in [9]; > 100 µM (inactive) in experiment [16]; > 100 µM (inactive) in [10]; > 10 µM (inactive) in [11]; > 100 µM (inactive) in [12]. For the same compound, the GI50 in experiment [13] is > 100 µM (inactive); in experiment [14], 29.7 µM (inactive).
For the compound `Oc1ccc(Br)cc1/C=N/c1ccc(Oc2ccc(/N=C/c3cc(Br)ccc3O)cc2)cc1`, the GI50 in [1], in [3], in experiment [4], in experiment [5], in experiment [6] and in experiment [7] was > 19.6 µM (inactive) each time. For the same compound, the GI50 in experiment [8], in experiment [9], in experiment [16], in experiment [10], in experiment [11] and in experiment [12] was > 19.6 µM (inactive) throughout. Further, the GI50 in experiment [13], in [14] and in experiment [15] was > 19.6 µM (inactive) in each case.
